Tested on: RD
Test: Cytotoxicity
Format: cell-based, human
Settings: read-out: 50% Cytotoxic concentration CC50, line of ma-EV-D68

Work on `Cc1cc(-c2noc(C(F)(F)F)n2)ccc1OCCCc1cc(C(=O)N(C)C)no1` [compound 11526092, 3-(3-methyl-4-(3-(3-N,N-dimethylcarbamoyl-isoxazol-5-yl)propoxy)phenyl)-5-trifluoromethyl-1,2,4-oxadiazole] yielded a CC50 of 9.4 µM.

From article PMC10527014 (Antiviral research, 2023)
